Results from patent US20220142959A1, “LEUCINE, ACETYL LEUCINE, AND RELATED ANALOGS FOR TREATING DISEASE” (priority 2019, published 2022).

Assays:
[1] = tested on: traumatic brain injury patient; assay: Case report: patient with traumatic brain injury given acetyl-DL-leucine; type: in vivo, human; settings: TBI patient
Experimental: A patient suffering from traumatic brain injury was administered acetyl-DL-leucine at a dose of 3 g per day for the first week, followed by a dose of 5 g per day.

LC3-II and APP-CTFs = assay: EAL flux in NPC1 mice (cerebellum LC3-II and APP-CTFs); type: in vivo, mouse; settings: treated 3 weeks; for restoring autophagic flux with respect to reducing LC3-II levels: relative to untreated NPC1
Text: FIG. 14 is a histogram of the ratio of LC3-II expression to βIII-tubulin in the cerebellum of mouse NPC1 brains at 9-12 weeks of age treated with ADLL, ALL, ADL, DLL, LL, DL, LLE, and miglustat (miglu.) for 3 weeks relative to untreated NPC1 cerebellum (n=4, mean±S.E.M).
FIG. 15 is a histogram of the ratio of APP-CTFs: full-length APP expression in the cerebellum of mouse NPC1 brains at 9-12 weeks of age treated with ADLL, ALL, ADL, DLL, LL, DL, LLE, and miglustat (miglu.) for 3 weeks relative to untreated NPC1 cerebellum (n=4, mean±S.E.M).
FIG. 16 is a histogram of the ratio of APP-CTF-6: full-length APP expression in the cerebellum of mouse NPC1 brains at 9-12 weeks of age treated with ADLL, ALL, ADL, DLL, LL, DL, and LLE for 3 weeks relative to untreated NPC1 cerebellum.
FIG. 17 is a histogram of the ratio of APP-CTF-7: full-length APP expression in the cerebellum of mouse NPC1 brains at 9-12 weeks of age treated with ADLL, ALL, ADL, DLL, LL, DL, and LLE for 3 weeks relative to untreated NPC1 cerebellum (n=4, mean±S.E.M).
The efficacy of ADLL, ALL, ADL, DLL, LL, DL, and LLE in alleviating the impairment of EAL flux in NPC1 mice was investigated. […] Without wishing to be bound by any particular theory, it is possible that ADL and LLE reduced autophagic vacuole (AV) build-up by inhibiting autophagosome formation, possibly through the activation mTORC1. […] Also, acetyl L-leucine (ALL), acetyl D-leucine (ADL) and L-leucine (LL) reduced CTF-7 expression, indicating some improvement in lysosomal proteolysis (FIG. 17).

[2] = tested on: rat primary cortical neurons; assay: U18666A-mediated impairment of lysosomal fusion in rat primary cortical neurons; type: cell-based; settings: for CTF-6 and -7 (endosomal-lysosomal fusion) / LC3-II levels: co-treated with U18666A (2 μg/mL) and compound 1 mM
Experimental: FIG. 18. is a histogram of the ratio of LC3-II normalised to βIII tubulin (expressed as a percentage of untreated (n=1)) in rat primary cortical neurons that were treated with U18666A (2 μg/ml, 24 hr) in the absence or presence of ADLL, ALL, ADL, DLL, LL, DL, and LLE (1 mM, 24 hr).
FIG. 19 is histogram of the ratio of APP-CTFs-6 and -7 normalised to their respective CTFs in untreated cells (expressed as a percentage of untreated (n=1) in rat primary cortical neurons that were treated with U18666A (2 μg/ml, 24 hr) in the absence or presence of ADLL, ALL, ADL, DLL, LL, DL, and LLE (1 mM, 24 hr).
The efficacy of ADLL, ALL, ADL, DLL, LL, DL, and LLE in alleviating the U18666A-mediated impairment of autophagosome-lysosome fusion and endosomal lysosomal fusion was investigated. In this cell-based assay of impaired EAL flux, the reappearance of basal levels of APP CTFs-6 and -7, provided an indication of improved endosomal-lysosomal fusion.
Neurons were co-treated with U18666A (2 μg/mL) along with ADLL, ALL, ADL, DLL, LL, DL, and LLE (1 mM, 24 h).

[3] = tested on: rat primary cortical neurons (NE and NG cultures); assay: Truncated tau and neuronal markers in neuron-enriched and neuron-glia cultures; type: cell-based; settings: for tolerability (levels of synaptophysin and βIII-tubulin vs untreated control): NE and NG cultures, 1 mM, five days (DIV 9-14); for reduction of basal levels of truncated tau: NG cultures at DIV14, 1 mM, five days
Experimental: FIG. 20 is eight Western blots of tau (5E2), synaptophysin and βIII-tubulin in rat primary cortical neurons (neuron-enriched (NE) and neuron-glia (NG) cultures) in the absence and presence of ADLL, ALL, ADL, DLL, LL, DL, and LLE (1 mM, 5 days).
The efficacy of ADLL, ALL, ADL, DLL, LL, DL, and LLE in reducing truncated tau levels in neuron-glia (NG) cultures was investigated. The results of this study are provided in FIGS. 20-24 One aim of this study was to determine whether ADLL, ALL, ADL, DLL, LL, DL, and LLE conferred intrinsic neuroprotection by sustaining neuronal function under conditions of cellular overgrowth, or whether they acted indirectly through the non-autonomous modulation of glial cells. Irrespective of whether the compounds acted directly or indirectly on neurons, preventing the generation of truncated tau confers beneficial effects to neuronal integrity.
Cultures were treated for five days (DIV 9-14) with 1 mM of ADLL, ALL, ADL, DLL, LL, DL, or LLE, and were subsequently assessed for a number of neuron-specific markers that could provide a readout on neuronal health: βIII-tubulin, full-length tau, truncated tau (antibody 5E2) and synaptophysin. ADLL, ALL, ADL, DLL, LL, DL, and LLE were well-tolerated in NE and NG cultures, as evidenced by consistently equal levels of synaptophysin and βIII-tubulin detected across untreated (control) and drug-treated samples (FIGS. 20, 23, and 24). None of ADLL, ALL, ADL, DLL, LL, DL, and LLE reduced basal levels of truncated tau in NG cultures at DIV14 (FIG. 20 and FIG. 22).

[4] = tested on: cerebellar Purkinje cells; assay: Purkinje cell survival in Npc1−/− mice; type: in vivo
Text: (§1) FIG. 46 is an image showing cerebellar Purkinje cell loss progressing from anterior to posterior lobes and microglial activation in untreated Npc1^−/− mice and Npc1^−/− mice treated with ADLL, ALL, and ADL. Cerebellums were stained with calbindin-b (Purkinje cells) or CD68 (activated microglia).
FIG. 47 is a scatter graph showing Purkinje cell survival at 59 days of age in untreated Npc1^−/− mice and Npc1^−/− mice treated with ADLL, ALL, and ADL.
(§2) The combination of increased survival of neurons and a less inflammatory environment in the brain could improve brain function, quality of life, and delay the progression of disease in human subjects.

[5] = tested on: CD68 positive activated microglia; assay: CD68 positive activated microglia in cerebellum of Npc1−/− mice; type: in vivo; settings: 59 days of age, compared to Npc1−/− UT
Text: as §1
FIG. 48 is a scatter graph showing frequency of CD68 positive activated microglia at 59 days of age in untreated Npc1^−/− mice and Npc1^−/− mice treated with ADLL, ALL, and ADL. CD68 cell density was measured in the cerebellum. n=5 animals per group. Mean±SD, *** p<0.0009 (one-way ANOVA).
as §2

[6] = tested on: patients with cerebellar ataxia; settings: cited from earlier work
[7] = tested on: patients with Niemann-Pick Type C (NPC); settings: one-month study, 12 patients; cited from earlier work
patients with ataxia = settings: in responders; cited from earlier work
LC3-II = settings: WO 2018/029658; cited from earlier work
[8] = 59 days of age, relative to untreated Npc1−/− littermates

## CC(=O)NC(CC(C)C)C(=O)O (racemic) [ADLL, acetyl-DL-leucine]
[1]; 3 g per day first week, then 5 g per day
  behaviour / level of activity after treatment: more active behaviour
[1]; medication stopped
  level of activity after medication was stopped: returned to its original level
LC3-II and APP-CTFs
  reduction in APP-CTFs, particularly CTF-6 and -7: not accompanied by a concomitant reduction
  restoring autophagic flux with respect to reducing LC3-II levels: effective in restoring autophagic flux
[2]; 24 h
  CTF-6 and -7 (endosomal-lysosomal fusion): reappearance of basal amounts
  LC3-II levels: lower than the basal levels
[3]
  tolerability (levels of synaptophysin and βIII-tubulin vs untreated control): well-tolerated
  reduction of basal levels of truncated tau: None
[4]; [8]
  more Purkinje cells in lobule III: 402%
  more Purkinje cells present in lobules I and II: 133%
[5]
  impact on frequency of CD68 positive activated microglia: did not have an impact
[6]; cerebellar patients
  benefit, another case series (Pelz et al. 2015): did not find benefit
  cerebellar ataxia symptoms, case series (Strupp et al. 2013): symptomatic improvement
[6]; patients with cerebellar ataxia
  temporal gait variability (quantitative gait analysis): improved
[7]
  ataxia symptoms in NPC patients: symptomatic improvement of ataxia
Patients with ataxia
  metabolism in the midbrain and lower brainstem (PET): increased metabolism
LC3-II
  LC3-II in NPC1 mouse brain: lowering of LC3-II

## CC(C)CC(N)C(=O)O (racemic) [DLL, DL-leucine]
[2]; 24 h
  CTF-6 and -7 (endosomal-lysosomal fusion): reappearance of basal amounts
[3]
  tolerability (levels of synaptophysin and βIII-tubulin vs untreated control): well-tolerated
  reduction of basal levels of truncated tau: None

## CC(=O)N[C@H](CC(C)C)C(=O)O [ADL, acetyl-D-leucine]
LC3-II and APP-CTFs
  CTF-7 expression / clearance: reduced
[2]; 24 h
  CTF-6 and -7 (endosomal-lysosomal fusion): reappearance of basal amounts
  LC3-II levels: lower than the basal levels
[3]
  tolerability (levels of synaptophysin and βIII-tubulin vs untreated control): well-tolerated
  reduction of basal levels of truncated tau: None
[4]; 59 days of age, compared to Npc1−/− UT
  Purkinje cell survival in any cerebellar lobules: did not improve
[4]; Npc1−/− mice
  long-term neuroprotective effects: did not mediate any
[5]
  impact on frequency of CD68 positive activated microglia: did not have an impact

## CC(C)C[C@@H](N)C(=O)O [DL, D-leucine]
LC3-II and APP-CTFs
  CTF-7 expression / clearance: positive effects
[2]; 24 h
  CTF-6 and -7 (endosomal-lysosomal fusion): reappearance of basal amounts
[3]
  tolerability (levels of synaptophysin and βIII-tubulin vs untreated control): well-tolerated
  reduction of basal levels of truncated tau: None

## CC(C)C[C@H](N)C(=O)O [LL, L-leucine]
LC3-II and APP-CTFs
  CTF-6 accumulation: did reduce
  CTF-7 expression / clearance: reduced
[2]; 24 h
  CTF-6 and -7 (endosomal-lysosomal fusion): reappearance of basal amounts
[3]
  tolerability (levels of synaptophysin and βIII-tubulin vs untreated control): well-tolerated
  reduction of basal levels of truncated tau: None

## CCOC(=O)[C@@H](N)CC(C)C [LLE, L-leucine ethyl ester]
LC3-II and APP-CTFs
  reduction in APP-CTFs, particularly CTF-6 and -7: not accompanied by a concomitant reduction
  restoring autophagic flux with respect to reducing LC3-II levels: effective in restoring autophagic flux
[2]; 24 h
  CTF-6 and -7 (endosomal-lysosomal fusion): reappearance of basal amounts
[3]
  tolerability (levels of synaptophysin and βIII-tubulin vs untreated control): well-tolerated
  reduction of basal levels of truncated tau: None

## CCN(CC)CCO[C@H]1CC[C@@]2(C)C(=CC[C@@H]3[C@@H]2CC[C@]2(C)C(=O)CC[C@@H]32)C1 [U18666A, reference compound]
[2]; U18666A alone 2 μg/mL, 24 hr, DIV14
  CTFs-6 and 7: complete absence
[2]; U18666A alone, 24 h
  LC3-II accumulation: did not cause an increase
